Legend:
[1] = tested on: HIV-1 infected cells (MN isolate); assay: Anti-syncytial assay (inhibition of HIV-1 MN syncytium formation, SupT1 target cells); type: cell-based; details: HIV-1 MN, SupT1 cells, 3 days; vs normal human serum
Source text: (§1) The H9 cell line (a cutaneous T lymphoma line) infected by HIV-IIIB [ATCC CRL 8543] was used in the neutralization assay. The H9 cell line infected by HIV-MN was used in the anti-syncytial assays. SupT1 and Hut78 cells were used as the target cell lines for the anti-syncytial and neutralization assays. All cell lines were obtained from the National Institutes of Health AIDS Repository (Bethesda, Md.).
To analyze the effect of the maternal serum samples on HIV-1 fusion, SupT1 cells were used as target cells in an anti-syncytial assay. Dilutions of the different maternal serum samples were made in 96 well plates in RPMI 1640 media containing 10% fetal calf serum at final dilutions of 1:4, 1:8, 1:16, 1:32, 1:64, 1:128, 1:256 or 1:512. HIV-1 infected cells (MN isolate) were then plated in the wells at a density of approximately 10^4 cells per well. SupT1 target cells were then added at 5×10^5 /well and the number of syncytia are determined after 3 days of incubation. Inhibition of syncytium formation by a serum sample was considered significant if the dilution which yielded a 50% reduction in the number of syncytia when compared to control was greater than 1:32. The average number of syncytia in the control (normal human serum) wells at the above dilutions were: 45.5, 48.5, 44, 48, 48.5, 41.5, 42 and 45.5 respectively.

HIV-IIIB viral isolate = assay: Neutralization assay (HIV-IIIB, Hut-78 cells, p24 antigen ELISA); type: cell-based, HIV-1 IIIB; design: key to Neutralization Activity, Dilution Resulting in ≥50% Inhibition: --: (-) indicates negative (i.e. a dilution of <1:10); details: HIV-IIIB, Hut-78 cells, p24 OD450 after 6 days; vs normal human serum
Procedure: as §1
In a neutralization assay, 20 μl of maternal sera samples was placed in 96 round bottom well plates at final dilutions of 1:10, 1:90 and 1:810 in RPMI. The HIV-IIIB viral isolate was diluted in RPMI to a TCID50 of 100 units/ml. Twenty μl of the virus solution was placed in each well and the plate was incubated for one hour at 4° C. Hut-78 cells were incubated with 2 μg/ml of polybrene for one hour at 37° C. in a CO2 incubator. The HUT-78 cells were washed and resuspended in fresh RPMI to a final concentration of 4×10^6 cells/ml. Ten μl of the cell suspension was added to each well and the plate was incubated for one hour in a 37° C., CO2 incubator.
Fifteen μl of the serum/cell/virus solution was aliquoted to a new plate containing 200 μl of fresh RPMI and incubated for 6 days. After 6 days, 100 μl was used to analyze for p24 antigen. The p24 capture ELISA assay kit (Coulter Corporation, Hialeah, Fla.) was used to perform the measurements.
Further, sera samples at the same dilutions as described above were tested for residual p24 core protein or antibody to insure the results were due only to viral infection.

gp120 peptides = assay: Number of gp120 peptides bound by maternal sera (Examples 3, 4); type: binding, HIV-1 IIIB; details: Table 8
Procedure: (§2) Radioimmunoassay (RIA) and enzyme-linked immunosorbent assay (ELISA) were performed by standard methodologies [E. Engvall, Meth. Immunol., 70:419-439 (1980); S. K. Pierce et al, J. Exp. Med., 144:1254-1262 (1976)]. Peptides were dissolved in 0.05M carbonate-bicarbonate buffer (pH 9.6) at a concentration of 10 μg/ml. Fifty μl (500 ng) of the peptides were immobilized in 96 well polyvinylchloride plates (Dynatech Laboratories, Inc.) overnight at 4° C. Plates were washed and non-specific sites were blocked with PBS containing 1% BSA overnight at 4° C.
(§3) Dilutions of HIV positive maternal sera were made in blocking buffer at dilutions of 1:50 and 1:500 and incubated in peptide coated plates overnight at 4° C. Plates were washed with PBS and incubated with 75,000 cpm of ^125 I-labelled goat anti-human IgG. The antibody was iodinated by a chloramine T method [W. V. Williams et al, Proc. Natl. Acad. Sci. USA, 85:6488-6492 (1988)]. Plates were washed, dried and counted in a gamma counter to measure specific binding. Normal human serum (i.e., HIV seronegative) was used as a control.
(§4) Alternatively, ELISA assays were performed in polystyrene plates (Dynatech Laboratories, Inc) in which 0.05% Tween 20 (Sigma Chemical Co.) was included in the washing, blocking and dilution buffers. The secondary antibody used was goat […] Ig conjugated to horseradish peroxidase (HRP) (Sigma Chemical Co). The substrate used for color development was 3,3',5,5' tetramethyl-benzidine dihydrochloride (TMB) (Sigma Chemical Co). Absorbance of samples was measured in a Dynatech MR5000 (Dynatech Laboratories, Inc.) plate reader and expressed as an optical density at wavelength of 450 nm (OD450).
(§5) The results of the binding assays are represented in Tables 3, 4, 6 and 7. The following key is used for the designation of specific binding of the maternal sera samples to the peptides: The minus sign, -, is equivalent to the specific OD450 or cpm of sera sample binding to peptide divided by the specific OD450 or cpm of NHS sample binding to peptide, which value is less than 2. The plus sign, +, is equivalent to the specific OD450 or cpm of sera sample binding to peptide divided by the specific OD450 or cpm of NHS sample binding to peptide, which value is between 2 to 3. The double plus sign, ++, is equivalent to the specific OD450 or cpm of sera sample binding to peptide divided by the specific OD450 or cpm of NHS sample binding to peptide, which value is greater than 3.
(§6) Comparisons of number of peptides which bound maternal serum samples were made between the transmission group and the nontransmission group. The data was analyzed using the unpaired student's test. For the determination of differences in the binding of specific peptides between transmission and non-transmission groups, the Spearman's rank-order correlation test was performed.

gp41 peptides = assay: Number of gp41 peptides bound by maternal sera (Examples 3, 4); type: binding, HIV-1 IIIB; details: Table 8
Procedure: as §2, §3, §4, §5, §6

| Substance | Anti-Syncytial Activity, Dilution Resulting in ≥50% Inhibition [1] | Neutralization Activity, Dilution Resulting in ≥50% Inhibition (HIV-IIIB viral isolate) | Number of gp120 Peptides Bound (+/++) (gp120 peptides) | Number of gp41 Peptides Bound (+ or ++) (gp41 peptides) |
| --- | --- | --- | --- | --- |
| 17: gp120 peptide, amino acids 267-282, SEQ ID NO:111 (EEEVVIRSVNFTDNAK) [Peptide 17] | 1:256 | 1:810 | 5 | 4 |
| HP1: gp120 peptide, amino acids 93-107, SEQ ID NO:99 (FNMWKNDMVEQMHED) | 1:64 | -- | 6 | 6 |
| HP2: gp120 peptide, amino acids 98-112, SEQ ID NO:100 (NDMVEQMHEDIISLW) | 1:32 | -- | 4 | 2 |
| HP3: gp120 peptide, amino acids 102-116, SEQ ID NO:101 (EQMHEDIISLWDQSL) | 1:256 | 1:90 | 4 | 2 |
| HP5: gp120 peptide, amino acids 105-117, SEQ ID NO:102 | 1:128 | -- | 4 | 0 |
| HP7: gp120 peptide, amino acids 107-121, SEQ ID NO:103 (DIISLWDQSLKPCVK) | 1:64 | 1:810 | 3 | 3 |
| HP9: gp120 peptide, amino acids 141-155, SEQ ID NO:104 (NSSSGRMIMEKGEIK) | 1:256 | 1:810 | 3 | 1 |
| HP10: gp120 peptide, amino acids 157-171, SEQ ID NO:105 (CSFNISTSIRGKVQK) | 1:256 | -- | 2 | 0 |

Reference: US5556744A, “Methods and compositions for diagnosing and treating certain HIV infected patients” (The Trustees of the University of Pennsylvania, priority 1994, dated 1996)
